Measured values published in ChEMBL document CHEMBL4819101, “Design, synthesis and molecular docking studies of thymol based 1,2,3-triazole hybrids as thymidylate synthase inhibitors and apoptosis inducers against breast cancer cells” (Bioorg Med Chem, 2021).

Tests used:
MCF7 [1] = test: cells; conditions: Homo sapiens, MCF7, 72 h
Description: Cytotoxicity against human MCF7 cells assessed as cell growth inhibition incubated for 72 hrs by MTT assay

MDA-MB-231 [2] = test: cells; conditions: Homo sapiens, MDA-MB-231, 72 h
Description: Cytotoxicity against human MDA-MB-231 cells assessed as cell growth inhibition incubated for 72 hrs by MTT assay

Thymidylate synthase [3] = molecular target: T1, Thymidylate synthase (Homo sapiens, UniProt P04818); test: Inhibition of human thymidylate synthase expressed in Escherichia coli using 6R,S-tetrahydrofolate and dUMP as substrate by spectrophotometric analysis
T1 sequence (P04818 whole entry): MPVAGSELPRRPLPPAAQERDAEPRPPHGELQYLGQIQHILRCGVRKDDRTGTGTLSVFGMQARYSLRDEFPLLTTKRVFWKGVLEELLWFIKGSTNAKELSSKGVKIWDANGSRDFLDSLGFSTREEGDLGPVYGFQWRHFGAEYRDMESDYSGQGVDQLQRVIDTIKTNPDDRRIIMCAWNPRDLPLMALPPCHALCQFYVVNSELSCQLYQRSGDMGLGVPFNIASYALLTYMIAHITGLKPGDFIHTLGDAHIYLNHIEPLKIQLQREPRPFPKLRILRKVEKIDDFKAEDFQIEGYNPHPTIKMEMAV

Thymidylate synthase [4] = molecular target: T1, Thymidylate synthase; test: Inhibition of thymidylate synthase (unknown origin)
MCF7 [5] = test: Potency index, ratio of 5-fluorouracil IC50 to test compound IC50 for cytotoxicity against human MCF7 cells assessed as cell growth inhibition incubated for 72 hrs by MTT assay; format: functional
MDA-MB-231 [6] = test: Potency index, ratio of tamoxifen IC50 to test compound IC50 for cytotoxicity against human MDA-MB-231 cells assessed as cell growth inhibition incubated for 72 hrs by MTT assay; format: functional
MDA-MB-231 [7] = test: Potency index, ratio of 5-fluorouracil IC50 to test compound IC50 for cytotoxicity against human MDA-MB-231 cells assessed as cell growth inhibition incubated for 72 hrs by MTT assay; format: functional
HEK293 = test: Cytotoxicity against human HEK293 cells assessed as cell growth inhibition incubated for 72 hrs by MTT assay; format: cell-based; conditions: HEK293, 72 h
MCF7 [8] = test: Induction of cell cycle arrest in human MCF7 cells assessed as increase in accumulation at G2/M phase at 10 uM incubated for 48 hrs by PI staining based flow cytometry analysis relative to control; format: functional
MCF7 [9] = test: Induction of cell cycle arrest in human MCF7 cells assessed as accumulation at sub-G1 phase at 10 uM incubated for 48 hrs by PI staining based flow cytometry analysis (reference value: 3.7 %); format: functional
MCF7 [10] = test: Induction of apoptosis in human MCF7 cells assessed as total apoptotic cells at 10 uM incubated for 48 hrs by annexin-V-FITC and PI staining based flow cytometry analysis (reference value: 8.3 %); format: functional

Row | SMILES | IC50 (MCF7 [1]) [µM] | IC50 (MDA-MB-231 [2]) [µM] | other results
1 | Cc1ccc(C(C)C)c(OCc2cn(-c3ccc([N+](=O)[O-])cc3)nn2)c1 | 32.2 | 41 | 
2 | Cc1ccc(C(C)C)c(OCc2cn(-c3ccc(F)cc3)nn2)c1 | 22.1 | 32.6 | 
3 | Cc1ccc(C(C)C)c(OCc2cn(-c3cccc4c(-n5cc(COc6cc(C)ccc6C(C)C)nn5)cccc34)nn2)c1 | 18.1 | 22.1 | 
4 | Nc1nc2[nH]cc(CCc3ccc(C(=O)N[C@@H](CCC(=O)O)C(=O)O)cc3)c2c(=O)[nH]1 [PEMETREXED] |  |  | IC50 (Thymidylate synthase [3]): 5.39 µM
5 | Cc1cccc(-n2cc(COc3cc(C)ccc3C(C)C)nn2)c1 | 28.1 | 31.2 | 
6 | Cc1ccc(C(C)C)c(OCc2cn(-c3cccc(Cl)c3)nn2)c1 | 32.1 | 45.2 | 
7 | COc1ccc(-n2cc(COc3cc(C)ccc3C(C)C)nn2)cc1 | 25.4 | 45.3 | 
8 | CCOC(=O)C1CCC(c2ccccc2)N1C(=O)c1cn(CCCNC(=O)C(F)(F)F)nn1 (stereo not given) |  |  | IC50 (Thymidylate synthase [4]): 0.057 µM
9 | CC/C(=C(\c1ccccc1)c1ccc(OCCN(C)C)cc1)c1ccccc1 [TAMOXIFEN] | 5.62 | 15 | 
10 | O=c1[nH]cc(F)c(=O)[nH]1 [FLUOROURACIL] | 20.1 | 25.3 | 
11 | Cc1ccc(C(C)C)c(OCc2cn(-c3ccccc3Cl)nn2)c1 | 15.6 | 26.6 | Ratio IC50 (MCF7 [5]): 1.2
12 | Cc1ccc(C(C)C)c(OCc2cn(-c3ccc(O)cc3)nn2)c1 | 45.4 | 30.4 | 
13 | Cc1ccc(C(C)C)c(OCc2cn(-c3cccc(C(=O)O)c3)nn2)c1 | 10.3 | 11.4 | Ratio IC50 (MDA-MB-231 [6]): 1.3; IC50 (Thymidylate synthase [3]): 4.27 µM; Ratio IC50 (MCF7 [5]): 1.95; Ratio IC50 (MDA-MB-231 [7]): 2.2
14 | Cc1ccc(C(C)C)c(OCc2cn(-c3ccccc3)nn2)c1 | 29.9 | 45.1 | 
15 | Cc1ccc(C(C)C)c(OCc2cn(-c3ccccc3C)nn2)c1 | 6.17 | 10.5 | Ratio IC50 (MDA-MB-231 [6]): 1.42; IC50 (HEK293): > 50 µM; IC50 (Thymidylate synthase [3]): 2.21 µM; Activity (MCF7 [8]): 37.3%; Activity (MCF7 [9]): 21.4%; Activity (MCF7 [10]): 29.4%; Ratio IC50 (MCF7 [5]): 3.2
